From patent US20110144206A1, “USE OF A COX-2 INHIBITOR FOR THE TREATMENT OF A COX-2 DEPENDENT DISORDER IN A PATIENT NOT CARRYING HLA ALLELES ASSOCIATED WITH HEPATOTOXICITY” (priority 2008, published 2011)

Experiments:
[1] = cited from earlier work
[2] = Liver enzyme (ALT/AST) elevation rates in TARGET study; assay type: in vivo, human
Description: Affected patients and matched controls are identified from a large 52-week international, multicenter, stratified, randomized, double-blind, double-dummy, parallel group clinical study. Most patients are administered one 400 mg dose of lumiracoxib each day. Patients are identified as affected cases based upon clinical measurements of elevated liver enzymes greater than or equal to 3 times ULN following administration of lumiracoxib. Patients are identified as control cases based upon clinical measurements of elevated liver enzymes less than 3 times ULN following administration of lumiracoxib, and control patients are matched to affected cases based upon clinical trial, country (where possible), sex, race and age (within 2 years, where possible). A total of 137 cases and 577 matched controls are used for analysis.
Kaplan-Meier incidence estimates are calculated for the DQA1*0102 carriers and non-carriers for >3xULN (FIG. 4) and >5xULN (FIG. 5) ALT/AST elevations.

[3] = TARGET, crude rate, whole treatment group
[4] = TARGET, crude rate, whole treatment group (Hy's law cases)
[5] = TARGET, patients with DNA and excluding DQA1*0102 patients, N ~3538 estimated

Row | Structure (SMILES) | retention in inflamed tissues ([1]; inflamed tissues) | time to maximum plasma concentrations after dosing ([1]; oral) | elimination half-life from plasma ([1]; plasma) | Kaplan-Meier incidence estimates of >3xULN and >5xULN ALT/AST elevations ([2]; DQA1*0102 carriers) | Kaplan-Meier incidence estimates of >3xULN and >5xULN ALT/AST elevations ([2]; DQA1*0102 non-carriers) | Hy's law cases ([2]; TARGET, DQA1*0102-negative patients in the lumiracoxib arm) | ALT/AST >3x ULN [2, 3] | ALT/AST >5x ULN [2, 3] | ALT/AST >8x ULN [2, 3] | ALT/AST >3x ULN + bilirubin ≧2xULN [2, 4] | ULN ALT/AST rates compared to the lumiracoxib arm ([2]; TARGET, lumiracoxib DQA1*0102-negative patients) | ALT/AST >3x ULN [2, 5] | ALT/AST >3x ULN + bilirubin ≧2xULN [2, 5] | ALT/AST >5x ULN [2, 5] | ALT/AST >8x ULN [2, 5] | Hy's law cases ([2]; TARGET, per treatment arm)
1 | Cc1ccc(Nc2c(F)cccc2Cl)c(CC(=O)O)c1 [Lumiracoxib, 2-[(2-chloro-6-fluorophenyl)amino]-5-methyl-benzeneacetic acid] | up to 24 hours | two | four | dramatic increase in the incidence after week 13 | do not show a sharp increase after week 13 | no cases | 236 (2.6) n (%) | 113 (1.3) n (%) | 56 (0.62) n (%) | 9 (0.10) n (%) | reduced considerably and are comparable to the other NSAIDs | 36 (1.0) n (%) | 0 (0) n (%) | 10 (0.3) n (%) | 3 (0.1) n (%) | Nine
2 | CC(C)Cc1ccc(C(C)C(=O)O)cc1 (centres unmarked) [Ibuprofen] |  |  |  |  |  |  | 35 (0.8) n (%) | 13 (0.3) n (%) | 4 (0.1) n (%) | 2 (0.05) n (%) |  |  |  |  |  | 2 cases
3 | COc1ccc2cc([C@H](C)C(=O)O)ccc2c1 [Naproxen] |  |  |  |  |  |  | 21 (0.5) n (%) | 6 (0.1) n (%) | 3 (0.1) n (%) | 2 (0.04) n (%) |  |  |  |  |  | 2 cases
